Patent US20230414472A1, “COSMETIC COMPOSITION INCLUDING GARLIC EXTRACT, BLACK TEA EXTRACT, AND GUAVA EXTRACT” (COSMAX INC., priority 2022, published 2023)

Columns and labels:
[1] = molecular target: T1, SNARE complex (SNAP-25, syntaxin 1a, VAMP-2) (Homo sapiens, UniProt P60880+P63027+Q16623); assay: Inhibitory effect on membrane fusion (SNARE liposome fusion, fluorescence intensity); format: biochemical; conditions: 100 μM myricetin; FIG. 1
T1 construct: GST (inferred from purification on glutathione agarose beads); made in house; host or cells: E. coli
Description: The inhibitory effect of the composition according to an embodiment on the membrane fusion was confirmed. Also, since myricetin was predicted as an active ingredient, the inhibitory effect of 100 μM of myricetin (Sigma-Aldrich) on the membrane fusion was also confirmed.
First, a soluble nethylmaleimide-sensitive factor attachment protein (SNAP) receptor protein was overexpressed in transformed E. coli, and then the expressed protein was selectively purified and obtained by using glutathione agarose beads. Then, […] (POPC, 62 mol %), 1,2-dioleoyl-sn-glycero-3-phosphatidylserine (DOPS, 35 mol %), 1,2-dioleoyl-sn-glycero-3-phosphoserine-N-(7-nitro-2-1,3-benzoxadiazol-4-yl) (NBD-PS, 1.5 mol %), and a fluorescent material, rhodamine (rhodamin-PE, 1.5 mol %) were mixed to prepare a 10 mM fluorescent substance-labeled liposome (v-vesicle). Meanwhile, DOPS and POPC were mixed to a molar concentration of 35:65 to prepare a 50 mM liposome (t-vesicle) that is not labeled with a fluorescent substance. Then, purified synaptosomal-associated protein, SNAP-25, and syntaxin 1a were mixed at a molar concentration of 1:1 and allowed for a reaction for 1 hour at room temperature, followed by mixing with the liposome that is not labeled with a fluorescent substance at a molar ratio of 100:1. […]
Then, the fluorescence intensity thereof was measured.

VAMP2 = VAMP2 level in human skin explant (fluorescence staining); format: cell-based; conditions: 10 μL sample at set concentrations, cultured 72 hours, FIG. 3
[2] = system: acetylcholine release in human skin tissue; assay: Acetylcholine release in human skin explant (choline/acetylcholine assay kit); format: cell-based; conditions: 10 μL sample every day for 3 days, FIG. 4

T1 sequence (P60880 whole entry, the tested form may be a part): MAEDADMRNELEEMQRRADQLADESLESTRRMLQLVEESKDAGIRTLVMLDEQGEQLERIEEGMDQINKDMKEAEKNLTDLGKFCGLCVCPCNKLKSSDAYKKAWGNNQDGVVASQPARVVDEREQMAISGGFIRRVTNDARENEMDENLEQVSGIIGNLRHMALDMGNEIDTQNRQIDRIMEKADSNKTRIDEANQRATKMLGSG
T1 sequence (Q16623 whole entry, the tested form may be a part): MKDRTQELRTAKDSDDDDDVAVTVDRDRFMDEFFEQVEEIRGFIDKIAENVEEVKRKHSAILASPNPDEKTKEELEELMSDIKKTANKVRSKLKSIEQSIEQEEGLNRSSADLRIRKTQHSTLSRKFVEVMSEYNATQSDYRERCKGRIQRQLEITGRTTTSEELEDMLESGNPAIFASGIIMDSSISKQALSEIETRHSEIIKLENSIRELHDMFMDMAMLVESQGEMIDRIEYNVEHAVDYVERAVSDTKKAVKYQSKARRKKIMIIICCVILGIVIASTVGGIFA
T1 sequence (P63027 whole entry, the tested form may be a part): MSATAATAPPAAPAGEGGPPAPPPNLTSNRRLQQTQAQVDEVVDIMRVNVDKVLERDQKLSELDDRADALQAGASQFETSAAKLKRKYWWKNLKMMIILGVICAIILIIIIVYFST

membrane fusion rate [1]: most significantly reduced
SMILES: O=c1c(O)c(-c2cc(O)c(O)c(O)c2)oc2cc(O)cc(O)c12 [myricetin]
VAMP2 level in the skin tissue (VAMP2): significantly reduced | amount of acetylcholine released in the skin tissue [2]: significantly reduced
